# Source: patent publication US20260335323A1, “CHIMERIC MOLECULE” (UCL Business Ltd, priority 2023, published 2026)
# Experiments:
# [1] = system: Mfn2; assay: Western blot, Mfn2 degradation in MEF WT; format: cell-based, mouse; conditions: with ULKTAC; cells not given
# Method: FIG. 6. ULKTACs rely on ULK1 for the redirection of autophagy components to mitochondria and subsequent mitophagic degradation (A) Western blot of mouse embryonic fibroblasts (MEF) WT and MEF ULK1/2^−/− treated with 1 mM ULKTACs, 5 mM CCCP or both and probed for ULK1, Mfn2 and Actin—quantification of the relative intensity of Mfn2 shown in (B), normalised to Actin. Representative immunofluorescence of MEF WT (C) and MEF ULK1/2^−/− (D) treated with 5 mM CCCP, 1 mM ULKTACs or both and immunostained for Alexa 488 ATP5a and Alexa 647 LC3B. Quantification of the colocalised LC3 to ATP5a spot area shown in WT vs ULK1/2^−/− treated MEF cells shown in (E). Data shown are mean±SEM, n=3, *p<0.05, ** p<0.01, *** p<0.001, Two-way ANOVA with Tukey's multiple comparisons test.
# Cells were homogenised in protein lysis buffer consisting of 0.1 M Tris pH 8.0, 0.1 M NaCl, 5% glycerol, IGEPAL® CA-630 (#18896. Sigma-Aldrich) and 5 mM EDTA, 0.1 M N-ethyl maleimide (ThermoFisher, #23030) and protease inhibitor (Cell Signalling Technologies, #5871). Protein concentrations were determined using the BCA assay to ensure equal loading. […] The membranes were immunoblotted with primary antibodies, overnight at 4° C. ULK1 (D8H5) Rabbit mAb (#0854) [1:1000], Phospho-ULK1 (Ser 317) Rabbit antibody (#37762) [1:1000], LC3B Rabbit antibody (#2775) [1:1000], TOM20 (D8T4N) Rabbit mAb (#42406) [1:1000] and, Phospho-Ubiquitin (Ser 65) (E2J6T) Rabbit mAb (#62082) [1:500] were obtained from Cell Signalling Technologies. Recombinant Anti-Vinculin Rabbit antibody (EPR8185) (#ab129002) [1:5000] and Anti-Mitofusin2 mouse antibody (6A8) (#ab56889) [1:1000] were purchased from Abcam. Anti-Actin mouse monoclonal antibody (#A1978) [1:1000] and Anti-rabbit p62/SQSTM1 (#P0067) [1:1000], were purchased from Sigma-Aldrich. Mono- and polyubiquitinylated conjugates monoclonal antibody (FK2) (BML-PW8810-0100) [1:500] was purchased from Enzo Life Sciences. Anti BRD4 (E2A7X) rabbit monoclonal antibody (#13440), Anti c-MYC (D84C12) rabbit monoclonal antibody (#5605) [1:1000], Anti GAPDH (D4C6R) mouse monoclonal antibody (#97166) [1:1000], Anti Max (S20) rabbit monoclonal antibody (#4739) [1:1000] were purchased from Cell Signalling Technologies. Anti Phospho-CHK1 (Ser 345) rabbit monoclonal antibody (#2341) [1:1000], Anti gamma-H2AX (Ser 139) rabbit monoclonal antibody (#2577) [1:1000] were obtained from Cell Signalling Technologies, Anti RPA32/RPA2 (phospho S4/S8) rabbit monoclonal antibody (ab87277) [1:1000] were obtained from Abcam.
# Membranes were then incubated with horseradish peroxidase (HRP)-conjugated secondary antibodies (Rabbit #7074 and Mouse #7076) purchased from Cell Signalling Technologies for 1 hour and the HRP signal was detected using EZ-ECL Enhanced Chemiluminescence Detection Kit for HRP (#20-500-500, Sartorius), and imaged with an Alliance Q9 Advanced (UVITec). Where required, membranes were stripped with mild stripping buffer consisting of 0.2 M glycine, 3.47 mM SDS, 1% Tween 20, pH 2.2, blocked for 1 hour with TBS-T+3% BSA and re-probed with primary antibodies.
# Therefore, we conclude that NZ-65 and NZ-66 are novel ULKTAC molecules that initiate the recruitment of ULK1 to mitochondria, leading to an increase in local ULK1 activity, the formation of an autophagosome and mitophagy.
# [2] = molecular target: T1, ULK1 (Homo sapiens, UniProt O75385); assay: ULK1/TOM20 co-localisation immunofluorescence in PANC-1 cells; format: cell-based; design: pSer317 blot or TOM20 co-localisation; conditions: PANC-1, 18 hours, alone
# T1 sequence (O75385 1-1050): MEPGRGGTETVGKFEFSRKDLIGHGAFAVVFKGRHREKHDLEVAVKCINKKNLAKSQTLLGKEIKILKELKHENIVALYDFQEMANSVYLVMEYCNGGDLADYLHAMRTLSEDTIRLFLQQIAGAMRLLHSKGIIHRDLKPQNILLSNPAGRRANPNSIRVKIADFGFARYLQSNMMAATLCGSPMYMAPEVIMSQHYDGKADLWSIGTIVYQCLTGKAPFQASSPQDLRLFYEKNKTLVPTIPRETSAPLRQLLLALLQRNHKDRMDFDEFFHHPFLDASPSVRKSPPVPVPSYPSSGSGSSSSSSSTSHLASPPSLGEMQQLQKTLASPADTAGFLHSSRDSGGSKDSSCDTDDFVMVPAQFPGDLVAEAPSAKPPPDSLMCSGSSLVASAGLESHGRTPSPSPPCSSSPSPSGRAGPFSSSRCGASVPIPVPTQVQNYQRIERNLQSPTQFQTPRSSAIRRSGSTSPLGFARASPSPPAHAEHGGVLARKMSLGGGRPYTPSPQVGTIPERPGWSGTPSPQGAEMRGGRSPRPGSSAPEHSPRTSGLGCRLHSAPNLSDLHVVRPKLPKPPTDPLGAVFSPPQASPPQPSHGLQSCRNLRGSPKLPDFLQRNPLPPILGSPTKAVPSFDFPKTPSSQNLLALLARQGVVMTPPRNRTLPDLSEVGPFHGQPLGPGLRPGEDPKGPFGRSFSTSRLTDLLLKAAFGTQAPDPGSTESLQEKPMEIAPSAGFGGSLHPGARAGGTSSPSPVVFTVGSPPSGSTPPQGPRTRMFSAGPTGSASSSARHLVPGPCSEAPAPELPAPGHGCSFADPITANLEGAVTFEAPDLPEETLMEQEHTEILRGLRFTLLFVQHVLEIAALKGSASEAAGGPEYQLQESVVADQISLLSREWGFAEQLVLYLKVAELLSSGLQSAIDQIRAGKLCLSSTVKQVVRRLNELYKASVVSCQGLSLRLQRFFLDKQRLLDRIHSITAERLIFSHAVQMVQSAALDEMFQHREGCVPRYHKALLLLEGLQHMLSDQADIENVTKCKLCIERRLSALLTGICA
# Method: (§1) FIG. 5. ULKTACs induce potent mitophagy after colocalisation and local activation of ULK1 at mitochondria (A) Representative immunofluorescence of PANC-1 cells treated with CCCP, ULKTACs or both and immunostained for TOM20 and ULK1 and counterstained with Alexa 488 and 568, respectively. Nuclei stained with Hoechst 33342. (B) Quantification of the colocalised ULK1 to TOM20 spot area of PANC-1 cells treated with DMSO, 5 mM CCCP, 10 mM BL-918, 10 mM BL-918+5 mM CCCP, […] NZ-65, […] NZ-65+5 mM CCCP, […] NZ-66, […] NZ-66+5 mM CCCP, 50 mM TSPO ligand, […] NZ-65+50 mM TSPO ligand, […] NZ-66+50 mM TSPO ligand. (C) Western blot of SH-SY5Y cells treated with 1 mM ULKTACs, 5 mM CCCP or both, probed for Mfn2, b-Actin and Tom20—quantifications are shown in (D) for Mfn2, normalised to Actin. (E) Representative images of SH-SY5Y cells stably expressing the mito-mKeima reporter treated with 3 mM CCCP, NZ-65 or both. Nuclei were stained with Hoechst 33342, healthy mitochondria are shown in green and mitochondria in lysosomes are shown in red. Fold change in mitophagy index over time after treatment for the indicated timepoints with title treatments alone or co-treated with 1.25 mM ULKTAC or 10 mM ULKTAC NZ-65 (F) or NZ-66 (G). Fold change in mitophagy index over time after treatment for the indicated timepoints with DMSO, 1.25 µM NZ-65 or NZ-66±50 µM TSPO ligand under co-treatment with DMSO (H) or 3 μM CCCP (I). […] Normalised to number of nuclei. All data shown are mean±SEM, n=3, *p<0.05, ** p<0.01, *** p<0.001. For colocalisation and TMRM experiments, one-way ANOVA with Dunnett's multiple comparisons test. For western blots, one-way ANOVA with Tukey's multiple comparisons test and unpaired t-test. For mito-mKeima experiment, two-way ANOVA with Tukey's multiple comparisons test.
# For TOM20/ULK1 immunofluorescence, cells were seeded in a 384 well PerkinElmer CellCarrier Ultra plate 24 hours prior to treatment with compounds. Cells were treated for 18 hours after which they were fixed with 4% paraformaldehyde (PFA) in phosphate buffered saline (PBS) and blocked with 10% FBS and 0.1% Triton in PBS. Plates were incubated at 4° C. overnight, with 1:400 mouse anti-TOM20 (Santa Cruz, #sc-17764) and 1:400 rabbit anti-ULK1 (Cell Signalling Technologies, #0854). The following day, plates were incubated with 1:1000 goat anti-mouse Alexa 488 (ThermoFisher Scientific, #A-11029), 1:1000 goat anti-rabbit Alexa 568 (ThermoFisher Scientific, #A-11011) and 1.62 μM Hoechst 33342 at room temperature for 1 hour before imaging. For ATP5a/LC3 immunofluorescence, cells were fixed with ice-cold 1:1 MeOH: acetone and blocked with 3% BSA (Sigma-Aldrich, #A3803) in Dulbecco's PBS (D-PBS). Plates were incubated overnight at 4° C. with 1:400 LC3B (D11) XP Rabbit mAb Alexa Fluor 647 Conjugate (Cell Signalling Technologies, #65299) and 1:400 ATP5a (Cell Signalling Technologies, #18023) lightning-linked to Alexa Fluor 488. The following day, plates were incubated with 1.62 […] at room temperature for 1 hour before imaging. Excitation and emission spectra for each channel are as follows: Hoechst 33342=405/435-480 nm, Alexa 488=488/500-550 nm and Alexa 568=561/570-630 nm. Images were acquired at 40× and 63× magnification with water immersion lens.
# To understand the temporal kinetics of NZ-65 and NZ-66, we assessed the recruitment of ULK1 to mitochondria, using co-localisation of ULK1 and TOM20 by immunofluorescence. […] After showing the co-localisation of ULK1 to the outer mitochondrial membrane (OMM) after ULKTAC treatment, we wanted to determine whether the ULKTACs induced mitophagy. To do this, we measured changes in Mfn2 under basal conditions and co-treatment with CCCP (FIG. 5C, D).
# [3] = system: SH-SY5Y cells; assay: mito-mKeima mitophagy assay (mitophagy index); format: cell-based, human; conditions: mitochondrial toxin treatment
# Method: FIG. 1. The structure of AUTAC-4 is shown in (A). (B) Representative images of SH-SY5Y cells stably expressing the mito-mKeima reporter treated with AUTAC4 for 18 h. Nuclei were stained with Hoechst 33342, healthy mitochondria are shown in green and mitochondria in lysosomes are shown in red. (C-E) Fold change in mitophagy index over time after treatment with increasing concentrations of AUTAC4 under treatment with DMSO (C), 3 mM CCCP (D) or 0.1/0.1 mM antimycin/oligomycin (E), also for 18 h. (F) Quantification of changes in mitochondrial membrane potential over time (DYm) by measuring the TMRM relative fluorescence intensity (RFI) treated with DMSO, 10 mM CCCP, 10 mM and 20 mM AUTAC4. Normalised to number of nuclei. (G) Representative western blot of SH-SY5Y cells treated with DMSO, 10 mM AUTAC4 or 10 mM AUTAC4+0.1/0.1 mM antimycin/oligomycin for 18 h and, probed for p62, b-actin and Tom20. Quantifications of western blot for changes in Tom20 and p62 levels shown in (H) and (I), respectively. (J) Representative images of PANC-1 cells stably expressing the mCherry-EGFP-LC3 tandem reporter. Nuclei stained with Hoechst 33342, autophagosomes are shown in the EGFP channel and autolysosomes in the mCherry channel. Fold change in the number of autophagosome (K) and autolysosome (L) puncta in AUTAC4 treated cells. All data shown are mean±SEM, n=3, *p<0.05, *** p<0.001. For mito-mKeima experiments, statistics were calculated by Two-way ANOVA with Tukey's multiple comparisons test. For western blots, TMRM and LC3 tandem reporter assay, statistics were calculated with one-way ANOVA with Tukey's multiple comparisons test.
# as §1
# SH-SY5Y stably expressing mito-mKeima were produced as previously described28,29. Cells were seeded in 384 well CellCarrier Ultra plates (PerkinElmer) 24 hours before treatment in complete media without phenol red. Cells were treated with increasing concentrations of BL-918, AUTAC4, NZ-65 or NZ-66, 24 hours prior to treatment with increasing concentrations of mitochondrial uncouplers to cause mitochondrial insult. SH-SY5Y mitochondria were treated with DMSO, 3 μM CCCP, 10 μM CCCP, 0.1/0.1 μM antimycin/oligomycin (AO), 0.5/0.5 µM AO or 1/1 μM AO. […]
structure (smiles),measurement,setting,value
"COc1ccc(Nc2ncc(C(F)(F)F)c(NC3CC3)n2)cc1OC [SBP-7455, reference compound]",ULKTAC mediated degradation of Mfn2 in presence of dual ULK1/2 inhibitor,[1],additionally demonstrating the requirement for ULK1 for ULKTAC mediated degradation of Mfn2
"NC(=O)C(=O)c1c(-c2ccccc2)[nH]c2ccccc12 [TSPO ligand, reference compound]",co-localisation of ULK1 and TOM20,[2],neither BL-918 nor the TSPO ligand alone induce co-localisation
"N#CC(C#N)=NNc1cccc(Cl)c1 [CCCP, reference compound]",induction of mitophagy,[3],induction of mitophagy
